Measured values published in ChEMBL document CHEMBL4507319 (2021).

Experiments:
[1] = biological target: Serine/threonine-protein kinase 25 (Homo sapiens) (UniProt O00506); assay: STK25(h) Eurofins kinase panel; conditions: Compound concentration 1.0 uM
[2] = biological target: Protein-tyrosine kinase 2-beta (Homo sapiens) (UniProt Q14289); assay: Pyk2(h) Eurofins kinase panel; conditions: Compound concentration 1.0 uM
[3] = biological target: Casein kinase I isoform gamma-1 (Homo sapiens) (UniProt Q9HCP0); assay: CK1gamma1(h) Eurofins kinase panel; conditions: Compound concentration 1.0 uM
Sequence of Casein kinase I isoform gamma-1 (Homo sapiens) (Q9HCP0 whole entry, looked up, the tested form may be a part, canonical isoform): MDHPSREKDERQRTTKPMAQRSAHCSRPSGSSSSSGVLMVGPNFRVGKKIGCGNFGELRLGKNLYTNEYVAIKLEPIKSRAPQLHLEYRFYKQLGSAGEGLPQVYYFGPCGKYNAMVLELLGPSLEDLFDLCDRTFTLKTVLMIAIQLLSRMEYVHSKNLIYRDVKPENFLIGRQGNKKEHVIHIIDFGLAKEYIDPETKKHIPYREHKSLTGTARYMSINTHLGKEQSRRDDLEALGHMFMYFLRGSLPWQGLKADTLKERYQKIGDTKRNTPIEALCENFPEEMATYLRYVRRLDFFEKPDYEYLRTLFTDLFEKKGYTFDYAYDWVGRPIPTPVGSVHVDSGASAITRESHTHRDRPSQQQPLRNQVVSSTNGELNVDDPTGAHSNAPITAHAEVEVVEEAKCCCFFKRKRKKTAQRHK

[4] = biological target: Epithelial discoidin domain-containing receptor 1 (Homo sapiens) (UniProt Q08345); assay: DDR1(h) Eurofins kinase panel; conditions: Compound concentration 1.0 uM
Sequence of Epithelial discoidin domain-containing receptor 1 (Homo sapiens) (Q08345 whole entry, the tested form may be a part): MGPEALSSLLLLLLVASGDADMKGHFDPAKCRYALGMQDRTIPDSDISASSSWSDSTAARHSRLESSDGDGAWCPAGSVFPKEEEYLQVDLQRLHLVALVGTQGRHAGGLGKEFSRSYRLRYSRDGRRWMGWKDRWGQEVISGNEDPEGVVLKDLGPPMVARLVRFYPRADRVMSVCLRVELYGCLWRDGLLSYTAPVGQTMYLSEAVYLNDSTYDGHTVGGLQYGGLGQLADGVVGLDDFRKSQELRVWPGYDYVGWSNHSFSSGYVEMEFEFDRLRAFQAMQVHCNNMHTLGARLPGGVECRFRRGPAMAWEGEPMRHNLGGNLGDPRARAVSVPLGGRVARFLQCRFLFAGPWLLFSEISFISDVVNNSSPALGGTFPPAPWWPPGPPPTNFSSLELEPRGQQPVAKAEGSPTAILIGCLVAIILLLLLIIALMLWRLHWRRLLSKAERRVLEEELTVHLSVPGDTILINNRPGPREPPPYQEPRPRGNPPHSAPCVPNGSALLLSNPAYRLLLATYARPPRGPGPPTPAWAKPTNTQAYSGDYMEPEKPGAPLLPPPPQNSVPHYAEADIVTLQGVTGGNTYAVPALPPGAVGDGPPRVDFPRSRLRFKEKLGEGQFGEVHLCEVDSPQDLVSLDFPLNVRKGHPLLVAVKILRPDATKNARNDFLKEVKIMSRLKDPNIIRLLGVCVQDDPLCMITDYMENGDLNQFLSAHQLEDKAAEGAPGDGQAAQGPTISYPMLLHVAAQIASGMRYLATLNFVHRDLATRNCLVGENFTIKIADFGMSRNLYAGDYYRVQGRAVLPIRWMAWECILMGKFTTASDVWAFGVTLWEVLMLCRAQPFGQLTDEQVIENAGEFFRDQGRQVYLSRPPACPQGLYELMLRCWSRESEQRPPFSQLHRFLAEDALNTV

[5] = biological target: Casein kinase II subunit alpha' (Homo sapiens) (UniProt P19784); assay: CK2alpha2(h) Eurofins kinase panel; conditions: Compound concentration 1.0 uM
Sequence of Casein kinase II subunit alpha' (Homo sapiens) (P19784 whole entry, looked up): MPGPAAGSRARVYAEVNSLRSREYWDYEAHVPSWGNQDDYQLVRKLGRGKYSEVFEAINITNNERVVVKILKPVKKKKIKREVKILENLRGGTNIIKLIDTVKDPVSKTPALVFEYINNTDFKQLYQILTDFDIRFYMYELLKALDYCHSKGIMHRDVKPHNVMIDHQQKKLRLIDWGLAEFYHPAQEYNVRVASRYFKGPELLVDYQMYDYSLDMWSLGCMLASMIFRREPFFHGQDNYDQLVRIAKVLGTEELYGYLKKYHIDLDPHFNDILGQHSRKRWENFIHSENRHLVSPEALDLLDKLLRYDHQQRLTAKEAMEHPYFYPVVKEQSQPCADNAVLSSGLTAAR

[6] = biological target: Receptor tyrosine-protein kinase erbB-2 (Homo sapiens) (UniProt P04626); assay: ErbB2(h) Eurofins kinase panel; conditions: Compound concentration 1.0 uM
Sequence of Receptor tyrosine-protein kinase erbB-2 (Homo sapiens) (P04626 whole entry): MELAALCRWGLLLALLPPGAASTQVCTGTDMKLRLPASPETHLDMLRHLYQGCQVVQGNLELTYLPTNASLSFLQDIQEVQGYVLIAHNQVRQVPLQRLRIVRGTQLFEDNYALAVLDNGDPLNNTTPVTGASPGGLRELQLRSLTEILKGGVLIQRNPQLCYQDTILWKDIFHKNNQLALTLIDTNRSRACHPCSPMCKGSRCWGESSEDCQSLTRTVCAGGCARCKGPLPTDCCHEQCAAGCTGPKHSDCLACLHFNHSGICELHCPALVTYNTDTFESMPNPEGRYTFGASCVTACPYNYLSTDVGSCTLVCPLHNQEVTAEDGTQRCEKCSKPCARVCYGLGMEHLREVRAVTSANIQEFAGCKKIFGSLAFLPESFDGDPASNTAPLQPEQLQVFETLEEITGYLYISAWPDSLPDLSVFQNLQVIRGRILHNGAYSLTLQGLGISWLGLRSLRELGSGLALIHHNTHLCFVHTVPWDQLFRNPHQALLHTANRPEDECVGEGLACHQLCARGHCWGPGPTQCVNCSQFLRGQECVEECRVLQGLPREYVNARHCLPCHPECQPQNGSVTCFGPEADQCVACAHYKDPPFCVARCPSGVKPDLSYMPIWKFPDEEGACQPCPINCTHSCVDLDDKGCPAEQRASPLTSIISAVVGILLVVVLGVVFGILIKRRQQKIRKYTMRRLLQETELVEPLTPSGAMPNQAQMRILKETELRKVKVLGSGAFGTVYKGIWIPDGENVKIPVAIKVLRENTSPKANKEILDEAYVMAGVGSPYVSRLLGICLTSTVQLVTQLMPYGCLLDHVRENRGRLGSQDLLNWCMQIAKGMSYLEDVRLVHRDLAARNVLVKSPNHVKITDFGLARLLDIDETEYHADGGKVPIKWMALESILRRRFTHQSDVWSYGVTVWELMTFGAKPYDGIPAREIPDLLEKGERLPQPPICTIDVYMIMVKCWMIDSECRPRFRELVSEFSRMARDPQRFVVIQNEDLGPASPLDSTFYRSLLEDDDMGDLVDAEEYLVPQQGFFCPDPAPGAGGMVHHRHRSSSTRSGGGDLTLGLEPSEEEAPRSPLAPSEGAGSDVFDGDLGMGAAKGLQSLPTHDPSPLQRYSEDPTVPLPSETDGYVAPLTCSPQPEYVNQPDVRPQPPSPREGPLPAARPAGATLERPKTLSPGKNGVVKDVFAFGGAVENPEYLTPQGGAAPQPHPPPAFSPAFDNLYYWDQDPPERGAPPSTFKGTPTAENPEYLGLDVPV

[7] = biological target: CDK9/cyclin T1 (Homo sapiens) (UniProt O60563+P50750); assay: CDK9/cyclin T1(h) Eurofins kinase panel; type: protein-complex assay; conditions: Compound concentration 1.0 uM
[8] = biological target: Wee1-like protein kinase 2 (Homo sapiens) (UniProt P0C1S8); assay: Wee1B(h) Eurofins kinase panel; conditions: Compound concentration 1.0 uM
Sequence of Wee1-like protein kinase 2 (Homo sapiens) (P0C1S8 whole entry, looked up): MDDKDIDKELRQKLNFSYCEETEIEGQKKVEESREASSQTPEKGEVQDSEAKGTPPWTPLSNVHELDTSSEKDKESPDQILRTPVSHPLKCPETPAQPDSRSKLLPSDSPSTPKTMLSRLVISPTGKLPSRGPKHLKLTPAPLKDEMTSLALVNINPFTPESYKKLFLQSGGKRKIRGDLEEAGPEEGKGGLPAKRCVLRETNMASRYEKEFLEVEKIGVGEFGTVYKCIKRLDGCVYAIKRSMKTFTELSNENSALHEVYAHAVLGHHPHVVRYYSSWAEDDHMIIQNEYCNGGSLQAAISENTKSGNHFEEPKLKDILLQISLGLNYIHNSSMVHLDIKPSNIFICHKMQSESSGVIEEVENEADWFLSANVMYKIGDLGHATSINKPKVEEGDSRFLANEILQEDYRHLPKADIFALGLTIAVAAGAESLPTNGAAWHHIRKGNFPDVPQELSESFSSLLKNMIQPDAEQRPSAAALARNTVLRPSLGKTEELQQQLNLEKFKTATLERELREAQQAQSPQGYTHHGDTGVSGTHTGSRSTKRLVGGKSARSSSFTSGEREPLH

[9] = biological target: CDK7/Cyclin H/MNAT1 (Homo sapiens) (UniProt P51946+P50613+P51948); assay: CDK7/cyclinH/MAT1(h) Eurofins kinase panel; type: protein-complex assay; conditions: Compound concentration 1.0 uM
[10] = biological target: Cyclin-dependent kinase 2/cyclin A (Homo sapiens) (UniProt P24941+P20248+P78396); assay: CDK2/cyclinA(h) Eurofins kinase panel; type: protein-complex assay; conditions: Compound concentration 1.0 uM
[11] = system: SW780; assay: SW780 cell line Proliferation assay; type: functional, Homo sapiens; conditions: time 3 day
[12] = biological target: T1, TGF-beta receptor type-1 (Homo sapiens) (UniProt P36897); assay: TGFBR1(h) Eurofins kinase panel; conditions: Compound concentration 1.0 uM
T1 sequence (whole entry): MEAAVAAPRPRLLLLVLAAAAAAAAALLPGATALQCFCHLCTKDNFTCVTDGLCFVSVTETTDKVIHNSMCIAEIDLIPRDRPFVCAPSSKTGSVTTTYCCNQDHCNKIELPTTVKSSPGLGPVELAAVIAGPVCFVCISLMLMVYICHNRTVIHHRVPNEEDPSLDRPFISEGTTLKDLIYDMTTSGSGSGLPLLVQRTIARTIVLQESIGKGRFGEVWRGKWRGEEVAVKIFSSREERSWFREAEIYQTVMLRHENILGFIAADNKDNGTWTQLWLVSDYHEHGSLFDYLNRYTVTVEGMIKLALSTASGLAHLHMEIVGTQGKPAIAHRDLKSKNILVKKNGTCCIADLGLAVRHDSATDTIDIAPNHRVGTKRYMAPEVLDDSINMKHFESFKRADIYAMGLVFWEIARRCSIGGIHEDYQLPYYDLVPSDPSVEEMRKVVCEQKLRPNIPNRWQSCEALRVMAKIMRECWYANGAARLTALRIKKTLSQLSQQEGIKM

[13] = biological target: T2, Serine/threonine-protein kinase D1 (Homo sapiens) (UniProt Q15139); assay: PKCmu (h) Eurofins kinase panel; conditions: Compound concentration 1.0 uM
T2 sequence (whole entry): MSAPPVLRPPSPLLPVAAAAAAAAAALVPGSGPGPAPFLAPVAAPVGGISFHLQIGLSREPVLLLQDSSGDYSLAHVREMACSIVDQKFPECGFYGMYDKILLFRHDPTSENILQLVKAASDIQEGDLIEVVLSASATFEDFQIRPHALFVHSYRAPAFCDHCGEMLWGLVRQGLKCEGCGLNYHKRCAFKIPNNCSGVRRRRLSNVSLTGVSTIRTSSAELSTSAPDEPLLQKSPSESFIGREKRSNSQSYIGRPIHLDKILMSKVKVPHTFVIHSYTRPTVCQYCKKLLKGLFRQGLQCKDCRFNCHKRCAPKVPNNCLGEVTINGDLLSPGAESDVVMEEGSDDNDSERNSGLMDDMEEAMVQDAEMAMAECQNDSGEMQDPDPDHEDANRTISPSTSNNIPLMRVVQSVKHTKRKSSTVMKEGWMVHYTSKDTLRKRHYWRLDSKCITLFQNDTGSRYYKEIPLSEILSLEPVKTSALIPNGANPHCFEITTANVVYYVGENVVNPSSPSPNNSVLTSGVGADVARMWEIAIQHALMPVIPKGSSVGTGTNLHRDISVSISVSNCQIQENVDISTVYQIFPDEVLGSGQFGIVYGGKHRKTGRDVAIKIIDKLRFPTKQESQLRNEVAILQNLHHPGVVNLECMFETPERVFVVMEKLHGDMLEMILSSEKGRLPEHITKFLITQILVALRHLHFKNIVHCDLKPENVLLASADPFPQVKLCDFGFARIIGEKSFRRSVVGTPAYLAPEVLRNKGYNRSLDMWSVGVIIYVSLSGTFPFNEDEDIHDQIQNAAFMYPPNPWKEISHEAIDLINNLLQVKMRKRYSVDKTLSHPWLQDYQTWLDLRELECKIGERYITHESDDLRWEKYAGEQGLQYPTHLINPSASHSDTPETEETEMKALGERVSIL

[14] = biological target: Receptor-interacting serine/threonine-protein kinase 2 (Homo sapiens) (UniProt O43353); assay: RIPK2(h) Eurofins kinase panel; conditions: Compound concentration 1.0 uM
Sequence of Receptor-interacting serine/threonine-protein kinase 2 (Homo sapiens) (O43353 whole entry): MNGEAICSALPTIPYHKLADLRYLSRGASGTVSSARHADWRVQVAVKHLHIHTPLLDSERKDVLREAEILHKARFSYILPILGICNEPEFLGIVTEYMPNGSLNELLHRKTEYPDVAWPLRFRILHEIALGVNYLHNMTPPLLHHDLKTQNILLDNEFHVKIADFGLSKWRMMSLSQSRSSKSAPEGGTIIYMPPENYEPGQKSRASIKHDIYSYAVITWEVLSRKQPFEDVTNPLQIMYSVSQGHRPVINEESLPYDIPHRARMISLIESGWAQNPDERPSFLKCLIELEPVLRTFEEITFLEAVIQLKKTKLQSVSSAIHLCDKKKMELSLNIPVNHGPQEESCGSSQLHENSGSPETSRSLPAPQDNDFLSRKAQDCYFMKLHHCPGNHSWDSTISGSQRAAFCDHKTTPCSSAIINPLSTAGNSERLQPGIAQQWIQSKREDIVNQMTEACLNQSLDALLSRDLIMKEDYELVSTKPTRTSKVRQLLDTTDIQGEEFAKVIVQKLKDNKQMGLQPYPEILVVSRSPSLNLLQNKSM

[15] = biological target: Serine/threonine-protein kinase MARK2 (Homo sapiens) (UniProt Q7KZI7); assay: PAR-1Balpha(h) Eurofins kinase panel; conditions: Compound concentration 1.0 uM
Sequence of Serine/threonine-protein kinase MARK2 (Homo sapiens) (Q7KZI7 whole entry): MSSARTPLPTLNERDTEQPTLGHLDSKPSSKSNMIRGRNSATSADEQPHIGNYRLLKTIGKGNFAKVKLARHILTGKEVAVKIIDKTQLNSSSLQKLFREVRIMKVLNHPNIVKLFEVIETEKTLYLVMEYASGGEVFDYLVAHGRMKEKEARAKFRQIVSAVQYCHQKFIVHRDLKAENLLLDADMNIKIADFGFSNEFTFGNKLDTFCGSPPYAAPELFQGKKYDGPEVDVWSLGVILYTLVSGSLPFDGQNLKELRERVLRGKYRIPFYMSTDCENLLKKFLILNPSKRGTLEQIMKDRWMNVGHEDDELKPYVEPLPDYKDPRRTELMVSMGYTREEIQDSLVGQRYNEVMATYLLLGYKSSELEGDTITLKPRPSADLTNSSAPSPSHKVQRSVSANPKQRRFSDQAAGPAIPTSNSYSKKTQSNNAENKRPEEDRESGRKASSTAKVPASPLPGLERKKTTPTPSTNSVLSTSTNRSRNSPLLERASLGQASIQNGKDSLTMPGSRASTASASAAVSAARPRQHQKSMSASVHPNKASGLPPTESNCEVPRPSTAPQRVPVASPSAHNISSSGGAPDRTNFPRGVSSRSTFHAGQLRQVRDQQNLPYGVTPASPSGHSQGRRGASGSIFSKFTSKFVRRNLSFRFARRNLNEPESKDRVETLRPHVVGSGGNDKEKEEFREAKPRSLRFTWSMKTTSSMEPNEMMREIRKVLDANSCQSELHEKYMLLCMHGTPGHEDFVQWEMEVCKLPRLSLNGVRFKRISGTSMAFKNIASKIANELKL

[16] = system: SW480; assay: SW480 cell line Proliferation assay; type: functional, Homo sapiens; conditions: time 3 day

CCc1ccccc1C(=O)Nc1n[nH]c2c(C)c(F)c(C3C(C#N)=C(C)N(C)C(C)=C3C#N)cc12 [BAY-3827]
27.8 µM: Cell Proliferation IC50 [16]
10.3 µM: Cell Proliferation IC50 [11]
inactive: % residual kinase activity [1] 43% | % residual kinase activity [2] 76% | % residual kinase activity [3] 101% | % residual kinase activity [4] 32% | % residual kinase activity [5] 109% | % residual kinase activity [6] 95% | % residual kinase activity [7] 91% | % residual kinase activity [8] 101% | % residual kinase activity [9] 66% | % residual kinase activity [10] 100% | % residual kinase activity [12] 99% | % residual kinase activity [13] 96% | % residual kinase activity [14] 115% | % residual kinase activity [15] 32%
